Results taken from patent US20250129028A1, “COMPOUNDS AND METHODS FOR YAP/TEAD MODULATION AND INDICATIONS THEREFOR” (Opna Bio SA, priority 2022, published 2025).

Each molecule was assayed on TEAD-dependent transcription (assay: TEAD-dependent transcription cell-based reporter assay (MSTO-211H+12XGTIIC luciferase)). Conditions: Homo sapiens; MSTO-211H+12XGTIIC cell line, luciferase signal normalized to cell viability, 24 hours compound incubation; read-out: MSTO-211H GMean IC50 (uM) Cell Assay Reporter Cell Variant: TEAD.
Parameters: species or system human
Excerpt: Determine Inhibitor Activity Against TEAD-Dependent Transcription in a Cell-Based Reporter Assay
The human mesothelioma cell line MSTO-211H was stably transfected with a pGL4.21 plasmid containing a synthetic promoter with 12 copies of the GTIIC TEAD response element that drives the expression of a luciferase reporter gene^1 using Lipofectamine transfection reagent (Thermo Fisher). Transfected cells were selected using puromycin and single cell clones expressing this construct (referred to as MSTO-211H+12XGTIIC) were generated by limiting dilution. MSTO-211H cells was characterized by genetic alterations in key components of the Hippo pathway^2, resulting in up-regulation of YAP/TEAD-mediated transcription. […] To evaluate TEAD inhibitors, the MSTO-211H+12XGTIIC cell line was seeded in a 96-well plate in 50 μL of culture media at 1×10^4 cells per well and incubated at 37° C. overnight. Serial dilutions of compounds (in total volume of 50 μL of culture media) were added to the cells and incubated at 37° C. for 24 hours. Each plate included cells treated with DMSO as high controls and cells treated with 20 μM of the reference compound K-975 (a known TEAD inhibitor)^3 as low controls. Cell viability was assayed by the addition of 25 μL of CellTiter-Fluor reagent (Promega) followed by a 30-minute incubation at 37° C. and quantification of the fluorescence signal (Ex400/Em505). Subsequently, luciferase expression was assayed by the addition of 25 μL of ONE-Glo reagent (Promega) followed by a 10-minute incubation at room temperature and quantification of the luminescence signal. The luminescence signal was normalized to the fluorescence signal to correct for any loss in cell viability over the 24-hour compound incubation period. The percentage of inhibition of normalized luminescence signal, indicative of compound-mediated inhibition of TEAD-dependent transcription, at individual compound concentrations relative to high and low controls was calculated. The data were analyzed by using nonlinear regression to generate IC50 values for individual compounds.

Question: `N#CCCC(=O)N1CCc2c(cccc2-c2ccc(C(F)(F)F)cc2)C1` [P-0273, 4-oxo-4-(5-(4-(trifluoromethyl)phenyl)-3,4-dihydroisoquinolin-2(1H)-yl)butanenitrile] was tested. Which IC50 did it give?
Answer: 0.001 to 10 µM

Question: With `NC(=O)NCCC(=O)N1CCc2ccc(Oc3ccc(C(F)(F)F)cc3)cc2C1` [P-0096, 1-(3-oxo-3-(7-(4-(trifluoromethyl)phen-oxy)-3,4-dihydroisoquin-olin-2(1H)-yl)propyl)urea] as the molecule, how does the IC50 read?
Answer: 0.001 to 10 µM

Question: `NC(=O)CCC(=O)N1CCc2ccc(Oc3ccc(C(F)(F)F)cc3)cc2C1` [P-0039, 4-oxo-4-(7-(4-(trifluoro-methyl)phenoxy)-3,4-dihydroisoquinolin-2(1H)-yl)butanamide] was tested. Which IC50 did it give?
Answer: 0.001 to 10 µM

Question: `O=C(Cc1cn[nH]c1)N1CCc2ccc(Oc3ccc(C(F)(F)F)cc3)cc2C1` [P-0099, 2-(1H-pyrazol-4-yl)-1-(7-(4-(trifluoromethyl)phen-oxy)-3,4-dihydroisoquin-olin-2(1H)-yl)ethan-1-one] was tested. Which IC50 did it give?
Answer: 10 to 100 µM

Question: For `CS(=O)(=O)CCC(=O)N1CCc2ccc(Oc3ccc(C(F)(F)F)cc3)c(/C=C/C3CCNCC3)c2C1` [P-0222, (E)-3-(methylsulfonyl)-1-(8-(2-(piperidin-4-yl)-vinyl)-7-(4-(trifluoro-methyl)phenoxy)-3,4-dihydroisoquinolin-2(1H)-yl)propan-1-one], which IC50 is on record?
Answer: 0.001 to 10 µM

Question: How did the IC50 turn out when `C=CC(=O)Nc1ncc(CC(=O)N2CCc3ccc(Oc4ccc(C(F)(F)F)c(F)c4)cc3C2)s1` [P-0163, N-(5-(2-(7-(3-fluoro-4-(trifluoromethyl)phen-oxy)-3,4-dihydroisoquin-olin-2(1H)-yl)-2-oxoeth-yl)thiazol-2-yl)acrylamide] was run?
Answer: 0.001 to 10 µM

Question: For `NS(=O)(=O)N1CCc2ccc(Oc3ccc(C(F)(F)F)cc3)cc2C1` [P-0001, 7-(4-(trifluoromethyl)-phenoxy)-3,4-dihydroiso-quinoline-2(1H)-sulfon-amide], which IC50 is on record?
Answer: 0.001 to 10 µM

Question: Which IC50 does the source give for `NS(=O)(=O)c1ccc(C(=O)N2CCc3ccc(Oc4ccc(C(F)(F)F)cc4)cc3C2)cc1` [P-0126, 4-(7-(4-(trifluorometh-yl)phenoxy)-1,2,3,4-tetrahydroisoquinoline-2-carbonyl)benzene-sulfonamide] here?
Answer: 0.001 to 10 µM

Question: How did the IC50 turn out when `C=C(C)OC(=O)N1CCc2ccc(Oc3ccc(C(F)(F)F)cc3)cc2C1` [P-0036, prop-1-en-2-yl 7-(4-(trifluoromethyl)phen-oxy)-3,4-dihydroiso-quinoline-2(1H)-carbox-ylate] was run?
Answer: 0.001 to 10 µM

Question: `CCC(=O)N1CCc2ccc(Oc3ccc(C(F)(F)F)cc3)cc2C1` [P-0014, 1-(7-(4-(trifluorometh-yl)phenoxy)-3,4-dihydroisoquinolin-2(1H)-yl)propan-1-one] was tested. Which IC50 did it give?
Answer: 0.001 to 10 µM

Question: With `NC(=O)NCC(=O)N1CCc2ccc(Oc3ccc(C(F)(F)F)cc3)cc2C1` [P-0079, 1-(2-oxo-2-(7-(4-(trifluoromethyl)phen-oxy)-3,4-dihydroisoquin-olin-2(1H)-yl)ethyl)urea] as the molecule, how does the IC50 read?
Answer: 0.001 to 10 µM

Question: How did the IC50 turn out when `O=C(Cc1cnc[nH]1)N1CCc2c(cccc2-c2ccc(C(F)(F)F)cc2)C1` [P-0275, 2-(1H-imidazol-5-yl)-1-(5-(4-(trifluoromethyl)-phenyl)-3,4-dihydroiso-quinolin-2(1H)-yl)ethan-1-one] was run?
Answer: 0.001 to 10 µM

Question: `CN(C)C(=O)CN1CCc2ccc(Oc3ccc(C(F)(F)F)cc3)cc2C1` [P-0027, N,N-dimethyl-2-(7-(4-(trifluoromethyl)phen-oxy)-3,4-dihydroisoquin-olin-2(1H)-yl)acetamide] was tested. Which IC50 did it give?
Answer: 0.001 to 10 µM

Question: With `O=C(CCO)N1CCc2ccc(Oc3ccc(C(F)(F)F)cc3)cc2C1` [P-0067, 3-hydroxy-1-(7-(4-(trifluoromethyl)phen-oxy)-3,4-dihydroiso-quinolin-2(1H)-yl)-propan-1-one] as the molecule, how does the IC50 read?
Answer: 0.001 to 10 µM

Question: `O=C(CCS(=O)(=O)C(F)(F)F)N1CCc2ccc(Oc3ccc(C(F)(F)F)cc3)cc2C1` [P-0061, 1-(7-(4-(trifluorometh-yl)phenoxy)-3,4-dihydro-isoquinolin-2(1H)-yl)-3-((trifluoromethyl)sulfon-yl)propan-1-one] was tested. Which IC50 did it give?
Answer: 0.001 to 10 µM

Question: With `CS(=O)(=O)CCC(=O)N1CCc2ccc(Oc3ccc(C(F)(F)F)cc3)c(-c3ccc(C4CC4)nc3)c2C1` [P-0207, 1-(8-(6-cyclopropylpyr-idin-3-yl)-7-(4-(trifluoro-methyl)phenoxy)-3,4-dihydroisoquinolin-2(1H)-yl)-3-(methylsul-fonyl)propan-1-one] as the molecule, how does the IC50 read?
Answer: 0.001 to 10 µM

Question: `CS(=O)(=O)c1cccnc1C(=O)N1CCc2ccc(Oc3ccc(C(F)(F)F)cc3)cc2C1` [P-0074, (3-(methylsulfonyl)pyr-idin-2-yl)(7-(4-(trifluoro-methyl)phenoxy)-3,4-dihydroisoquinolin-2(1H)-yl)methanone] was tested. Which IC50 did it give?
Answer: 0.001 to 10 µM

Question: For `CN(C)S(=O)(=O)NCC(=O)N1CCc2ccc(Oc3ccc(C(F)(F)F)c(F)c3)cc2C1` [P-0116, N,N-dimethyl-N′-(2-(7-(3-fluoro-4-(trifluoro-methyl)phenoxy)-3,4-dihydroisoquinolin-2(1H)-yl)-2-oxoethyl)-sulfamide], which IC50 is on record?
Answer: 0.001 to 10 µM

Question: `C=CC(=O)N1CC(C(=O)N2CCc3c(cccc3Oc3ccc(C(F)(F)F)cc3)C2)C1` [P-0255, 1-(3-(5-(4-(trifluorometh-yl)phenoxy)-1,2,3,4-tetrahydroisoquinoline-2-carbonyl)azetidin-1-yl)prop-2-en-1-one] was tested. Which IC50 did it give?
Answer: 0.001 to 10 µM

Question: For `NS(=O)(=O)CC(=O)N1CCc2ccc(Oc3ccc(C(F)(F)F)cc3)cc2C1` [P-0125, 2-oxo-2-(7-(4-(trifluoro-methyl)phenoxy)-3,4-dihydroisoquinolin-2(1H)-yl)ethane-1-sul-fonamide], which IC50 is on record?
Answer: 0.001 to 10 µM

Question: Which IC50 does the source give for `O=C(CCc1cn[nH]c1)N1CCc2c(cccc2Oc2ccc(C(F)(F)F)cc2)C1` [P-0248, 3-(1H-pyrazol-4-yl)-1-(5-(4-(trifluoromethyl)-phenoxy)-3,4-dihydro-isoquinolin-2(1H)-yl)pro-pan-1-one] here?
Answer: 0.001 to 10 µM

Question: Which IC50 does the source give for `CS(=O)(=O)c1ncc(C(=O)N2CCc3ccc(Oc4ccc(C(F)(F)F)cc4)cc3C2)s1` [P-0075, (2-(methylsulfonyl)thi-azol-5-yl)(7-(4-(trifluoro-methyl)phenoxy)-3,4-dihydroisoquinolin-2(1H)-yl)methanone] here?
Answer: 0.001 to 10 µM

Question: For `CS(=O)(=O)CCC(=O)N1CCc2ccc(Oc3ccc(C(F)(F)F)cc3)c(-n3cc(C(F)(F)F)cn3)c2C1` [P-0208, 3-(methylsulfonyl)-1-(8-(4-(trifluoromethyl)-1H-pyrazol-1-yl)-7-(4-(trifluoromethyl)phen-oxy)-3,4-dihydroisoquin-olin-2(1H)-yl)propan-1-one], which IC50 is on record?
Answer: 0.001 to 10 µM

Question: For `CS(=O)(=O)CCC(=O)N1CCc2ccc(Oc3ccc(C(F)(F)F)cc3)cc2C1CC1CN(c2ccccn2)C1` (stereo not shown) [P-0201, 3-(methylsulfonyl)-1-(1-((1-(pyridin-2-yl)azeti-din-3-yl)methyl)-7-(4-(trifluoromethyl)phen-oxy)-3,4-dihydroisoquin-olin-2(1H)-yl)propan-1-one], which IC50 is on record?
Answer: 0.001 to 10 µM

Question: Which IC50 does the source give for `CC(=O)N1CC(CC2c3cc(Oc4ccc(C(F)(F)F)cc4)ccc3CCN2C(=O)CCS(C)(=O)=O)C1` (stereo not shown) [P-0200, 1-(1-((1-acetylazetidin-3-yl)methyl)-7-(4-(trifluoromethyl)phen-oxy)-3,4-dihydroisoquin-olin-2(1H)-yl)-3-(methyl-sulfonyl)propan-1-one] here?
Answer: 0.001 to 10 µM

Question: Which IC50 does the source give for `CC(C)(O)CC(=O)N1CCc2c(cccc2Oc2ccc(C(F)(F)F)cc2)C1` [P-0264, 3-hydroxy-3-methyl-1-(5-(4-(trifluoromethyl)-phenoxy)-3,4-dihydroiso-quinolin-2(1H)-yl)butan-1-one] here?
Answer: 0.001 to 10 µM

Question: For `CC(C)(C)OC(=O)NCC(=O)N1CCc2ccc(Oc3ccc(C(F)(F)F)cc3)cc2C1` [P-0131, tert-butyl (2-oxo-2-(7-(4-(trifluoromethyl)phen-oxy)-3,4-dihydroisoquin-olin-2(1H)-yl)ethyl)-carbamate], which IC50 is on record?
Answer: 0.001 to 10 µM

Question: For `O=C(CCc1ncc[nH]1)N1CCc2c(cccc2Oc2ccc(C(F)(F)F)cc2)C1` [P-0249, 3-(1H-imidazol-2-yl)-1-(5-(4-(trifluoromethyl)-phenoxy)-3,4-dihydro-isoquinolin-2(1H)-yl)pro-pan-1-one], which IC50 is on record?
Answer: 0.001 to 10 µM

Question: How did the IC50 turn out when `CCC1c2cc(Oc3ccc(C(F)(F)F)cc3)ccc2CCN1C(=O)CNC(N)=O` (stereo not shown) [P-0219, 1-(2-(1-ethyl-7-(4-(trifluoromethyl)phen-oxy)-3,4-dihydroisoquin-olin-2(1H)-yl)-2-oxoeth-yl)urea] was run?
Answer: 0.001 to 10 µM

Question: `O=C(CCC(=O)C(F)(F)F)N1CCc2ccc(Oc3ccc(C(F)(F)F)cc3)cc2C1` [P-0076, 5,5,5-trifluoro-1-(7-(4-(trifluoromethyl)phen-oxy)-3,4-dihydroisoquin-olin-2(1H)-yl)pentane-1,4-dione] was tested. Which IC50 did it give?
Answer: 0.001 to 10 µM

Question: How did the IC50 turn out when `CS(=O)(=O)CC(=O)N1CCc2ccc(Oc3ccc(C(F)(F)F)cc3)cc2C1` [P-0078, 2-(methylsulfonyl)-1-(7-(4-(trifluoromethyl)phen-oxy)-3,4-dihydroisoquin-olin-2(1H)-yl)ethan-1-one] was run?
Answer: 0.001 to 10 µM
